Legend:
[1] = target: Microtubule-associated serine/threonine-protein kinase 1 (Homo sapiens) (UniProt Q9Y2H9)
[2] = target: Beta-adrenergic receptor kinase 1 (Homo sapiens) (UniProt P25098)
[3] = target: Cyclin-G-associated kinase (Homo sapiens) (UniProt O14976)
[4] = target: Platelet-derived growth factor receptor beta (Homo sapiens) (UniProt P09619)
[5] = target: Serine/threonine-protein kinase N2 (Homo sapiens) (UniProt Q16513)
[6] = test system: Epidermal growth factor receptor (Homo sapiens), P00533 [L858R,T790M]
[7] = target: Cyclin-dependent kinase 17 (Homo sapiens) (UniProt Q00537)
[8] = test system: Mast/stem cell growth factor receptor Kit (Homo sapiens), P10721 [A829P]
[9] = target: ALK tyrosine kinase receptor (Homo sapiens) (UniProt Q9UM73)
[10] = target: Phosphatidylinositol 4-phosphate 5-kinase type-1 alpha (Homo sapiens) (UniProt Q99755)
[11] = target: Ephrin type-B receptor 2 (Homo sapiens) (UniProt P29323)
[12] = test system: Tyrosine-protein kinase ABL1 (Homo sapiens), P00519 [Q252H]
[13] = target: Tyrosine-protein kinase BTK (Homo sapiens) (UniProt Q06187)
[14] = target: Serine/threonine-protein kinase pim-1 (Homo sapiens) (UniProt P11309)
[15] = target: SRSF protein kinase 2 (Homo sapiens) (UniProt P78362)
[16] = target: Calcium/calmodulin-dependent protein kinase type II subunit delta (Homo sapiens) (UniProt Q13557)
[17] = target: Glycogen synthase kinase-3 alpha (Homo sapiens) (UniProt P49840)
[18] = target: cGMP-dependent protein kinase 2 (Homo sapiens) (UniProt Q13237)
[19] = target: SNF-related serine/threonine-protein kinase (Homo sapiens) (UniProt Q9NRH2)
[20] = target: Serine/threonine-protein kinase 24 (Homo sapiens) (UniProt Q9Y6E0)
[21] = target: Mitogen-activated protein kinase 1 (Homo sapiens) (UniProt P28482)
[22] = target: Muscle, skeletal receptor tyrosine-protein kinase (Homo sapiens) (UniProt O15146)
[23] = target: Hormonally up-regulated neu tumor-associated kinase (Homo sapiens) (UniProt P57058)
[24] = target: Cyclin-dependent kinase 8 (Homo sapiens) (UniProt P49336)
[25] = target: Sigma non-opioid intracellular receptor 1 (Homo sapiens) (UniProt Q99720); settings: Compound concentration 10.0 uM
[26] = target: Proto-oncogene tyrosine-protein kinase ROS (Homo sapiens) (UniProt P08922)
[27] = target: Serine/threonine-protein kinase PAK 6 (Homo sapiens) (UniProt Q9NQU5)
[28] = target: Ribosomal protein S6 kinase alpha-6 (Homo sapiens) (UniProt Q9UK32)
[29] = target: Serine/threonine-protein kinase 3 (Homo sapiens) (UniProt Q13188)
[30] = test system: Tyrosine-protein kinase ABL1 (Homo sapiens), P00519 [F317L]
[31] = target: Serine/threonine-protein kinase PLK3 (Homo sapiens) (UniProt Q9H4B4)
[32] = target: Serine/threonine-protein kinase RIO3 (Homo sapiens) (UniProt O14730)
[33] = target: Myosin light chain kinase 2, skeletal/cardiac muscle (Homo sapiens) (UniProt Q9H1R3)
[34] = test system: Receptor-type tyrosine-protein kinase FLT3 (Homo sapiens), P36888 [D835Y]
[35] = test system: Tyrosine-protein kinase ABL1 (Homo sapiens), P00519 [H396P]
[36] = target: Alpha-1D adrenergic receptor (Homo sapiens) (UniProt P25100); settings: Compound concentration 10.0 uM
[37] = test system: Tyrosine-protein kinase ABL1 (Homo sapiens), P00519 [H396P]; remark: listed apart in the source
[38] = target: D(1B) dopamine receptor (Homo sapiens) (UniProt P21918); settings: Compound concentration 10.0 uM
[39] = target: Mitogen-activated protein kinase kinase kinase 13 (Homo sapiens) (UniProt O43283)
[40] = target: Serine/threonine-protein kinase PLK1 (Homo sapiens) (UniProt P53350)
[41] = target: Activin receptor type-1 (Homo sapiens) (UniProt Q04771)
[42] = target: Sigma intracellular receptor 2 (Homo sapiens, UniProt Q5BJF2); test: GPCRScan assay: inhibition of Sigma 2; parameters: radioligand conc. used [nm] 5.0, parental cells HEKT
[43] = target: Cyclin-dependent kinase 7 (Homo sapiens) (UniProt P50613)
[44] = target: Mitogen-activated protein kinase kinase kinase 10 (Homo sapiens) (UniProt Q02779)
[45] = target: Serine/threonine-protein kinase 10 (Homo sapiens) (UniProt O94804)
[46] = Compound concentration 1000.0 nM
[47] = Compound concentration 100.0 nM

Chain of Sigma intracellular receptor 2 (Q5BJF2 whole entry): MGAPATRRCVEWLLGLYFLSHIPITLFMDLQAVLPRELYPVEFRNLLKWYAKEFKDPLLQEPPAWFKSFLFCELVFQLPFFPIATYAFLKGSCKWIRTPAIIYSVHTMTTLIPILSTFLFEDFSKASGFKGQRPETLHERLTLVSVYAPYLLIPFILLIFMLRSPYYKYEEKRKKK
Chain of Calcium/calmodulin-dependent protein kinase type II subunit delta (Homo sapiens) (Q13557 whole entry): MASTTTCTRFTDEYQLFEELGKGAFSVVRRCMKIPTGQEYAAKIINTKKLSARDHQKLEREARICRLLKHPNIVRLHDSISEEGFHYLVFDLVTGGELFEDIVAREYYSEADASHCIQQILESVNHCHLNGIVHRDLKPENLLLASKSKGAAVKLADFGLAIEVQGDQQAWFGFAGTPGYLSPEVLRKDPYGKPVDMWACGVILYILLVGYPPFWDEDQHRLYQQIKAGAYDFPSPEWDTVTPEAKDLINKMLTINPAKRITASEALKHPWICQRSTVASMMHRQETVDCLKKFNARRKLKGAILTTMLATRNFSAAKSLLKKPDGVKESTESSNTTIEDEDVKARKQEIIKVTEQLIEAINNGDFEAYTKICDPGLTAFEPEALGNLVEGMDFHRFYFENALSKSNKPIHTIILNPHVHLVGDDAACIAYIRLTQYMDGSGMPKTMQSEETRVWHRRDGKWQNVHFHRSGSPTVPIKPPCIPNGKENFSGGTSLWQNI
Chain of Glycogen synthase kinase-3 alpha (Homo sapiens) (P49840 2-483 limits assumed): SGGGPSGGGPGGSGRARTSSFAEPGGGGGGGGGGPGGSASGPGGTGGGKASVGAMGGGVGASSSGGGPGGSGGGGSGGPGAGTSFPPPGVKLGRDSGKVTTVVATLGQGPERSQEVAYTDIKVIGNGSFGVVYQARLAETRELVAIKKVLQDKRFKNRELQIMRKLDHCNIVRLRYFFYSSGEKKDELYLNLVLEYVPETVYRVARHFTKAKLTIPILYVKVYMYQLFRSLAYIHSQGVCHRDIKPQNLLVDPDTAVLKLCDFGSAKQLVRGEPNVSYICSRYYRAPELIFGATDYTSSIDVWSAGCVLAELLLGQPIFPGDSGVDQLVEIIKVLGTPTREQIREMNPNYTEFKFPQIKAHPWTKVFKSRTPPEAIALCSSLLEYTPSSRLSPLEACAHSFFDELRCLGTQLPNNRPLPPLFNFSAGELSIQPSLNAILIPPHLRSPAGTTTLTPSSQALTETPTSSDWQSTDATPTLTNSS
Chain of Sigma non-opioid intracellular receptor 1 (Homo sapiens) (Q99720 whole entry): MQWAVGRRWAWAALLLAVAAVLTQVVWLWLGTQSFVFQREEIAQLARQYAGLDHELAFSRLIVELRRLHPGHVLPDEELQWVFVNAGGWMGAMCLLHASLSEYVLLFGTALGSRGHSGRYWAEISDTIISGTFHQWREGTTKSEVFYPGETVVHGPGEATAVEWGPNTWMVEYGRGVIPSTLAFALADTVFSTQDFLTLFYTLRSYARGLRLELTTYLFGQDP
Chain of Beta-adrenergic receptor kinase 1 (Homo sapiens) (P25098 whole entry): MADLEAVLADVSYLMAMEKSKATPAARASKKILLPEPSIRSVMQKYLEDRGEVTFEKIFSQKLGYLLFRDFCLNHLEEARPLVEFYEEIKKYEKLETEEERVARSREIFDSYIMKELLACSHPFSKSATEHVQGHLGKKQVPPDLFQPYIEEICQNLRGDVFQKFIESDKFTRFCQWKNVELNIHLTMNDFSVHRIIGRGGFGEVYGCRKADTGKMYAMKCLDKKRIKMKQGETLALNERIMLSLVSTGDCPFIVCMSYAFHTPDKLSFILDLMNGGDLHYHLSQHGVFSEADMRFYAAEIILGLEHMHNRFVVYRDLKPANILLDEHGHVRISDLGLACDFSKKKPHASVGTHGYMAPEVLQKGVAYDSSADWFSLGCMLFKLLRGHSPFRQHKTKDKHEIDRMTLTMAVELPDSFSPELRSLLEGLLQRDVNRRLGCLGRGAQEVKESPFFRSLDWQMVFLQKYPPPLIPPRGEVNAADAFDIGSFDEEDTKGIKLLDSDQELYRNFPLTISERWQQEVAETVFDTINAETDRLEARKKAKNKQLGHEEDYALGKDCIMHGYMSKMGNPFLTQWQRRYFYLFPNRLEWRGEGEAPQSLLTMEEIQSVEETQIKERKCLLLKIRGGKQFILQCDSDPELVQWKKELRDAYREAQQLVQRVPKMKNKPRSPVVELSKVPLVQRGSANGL
Chain of Myosin light chain kinase 2, skeletal/cardiac muscle (Homo sapiens) (Q9H1R3 whole entry): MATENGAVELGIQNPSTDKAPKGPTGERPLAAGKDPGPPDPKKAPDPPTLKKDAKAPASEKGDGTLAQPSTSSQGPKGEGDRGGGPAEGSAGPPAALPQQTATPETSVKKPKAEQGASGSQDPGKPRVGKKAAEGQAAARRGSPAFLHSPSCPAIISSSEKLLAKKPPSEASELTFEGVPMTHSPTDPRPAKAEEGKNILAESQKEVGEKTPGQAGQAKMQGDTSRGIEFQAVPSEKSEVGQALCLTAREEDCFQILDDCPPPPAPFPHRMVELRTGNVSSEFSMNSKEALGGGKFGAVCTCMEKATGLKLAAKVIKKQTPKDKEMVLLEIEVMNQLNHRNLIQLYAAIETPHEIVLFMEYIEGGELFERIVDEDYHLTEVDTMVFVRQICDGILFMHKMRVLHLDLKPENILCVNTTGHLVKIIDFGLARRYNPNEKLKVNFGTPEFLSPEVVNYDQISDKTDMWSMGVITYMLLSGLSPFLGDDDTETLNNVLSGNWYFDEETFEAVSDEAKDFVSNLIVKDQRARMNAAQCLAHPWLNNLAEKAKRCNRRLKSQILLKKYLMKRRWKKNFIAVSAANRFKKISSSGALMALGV
Chain of SNF-related serine/threonine-protein kinase (Homo sapiens) (Q9NRH2 whole entry): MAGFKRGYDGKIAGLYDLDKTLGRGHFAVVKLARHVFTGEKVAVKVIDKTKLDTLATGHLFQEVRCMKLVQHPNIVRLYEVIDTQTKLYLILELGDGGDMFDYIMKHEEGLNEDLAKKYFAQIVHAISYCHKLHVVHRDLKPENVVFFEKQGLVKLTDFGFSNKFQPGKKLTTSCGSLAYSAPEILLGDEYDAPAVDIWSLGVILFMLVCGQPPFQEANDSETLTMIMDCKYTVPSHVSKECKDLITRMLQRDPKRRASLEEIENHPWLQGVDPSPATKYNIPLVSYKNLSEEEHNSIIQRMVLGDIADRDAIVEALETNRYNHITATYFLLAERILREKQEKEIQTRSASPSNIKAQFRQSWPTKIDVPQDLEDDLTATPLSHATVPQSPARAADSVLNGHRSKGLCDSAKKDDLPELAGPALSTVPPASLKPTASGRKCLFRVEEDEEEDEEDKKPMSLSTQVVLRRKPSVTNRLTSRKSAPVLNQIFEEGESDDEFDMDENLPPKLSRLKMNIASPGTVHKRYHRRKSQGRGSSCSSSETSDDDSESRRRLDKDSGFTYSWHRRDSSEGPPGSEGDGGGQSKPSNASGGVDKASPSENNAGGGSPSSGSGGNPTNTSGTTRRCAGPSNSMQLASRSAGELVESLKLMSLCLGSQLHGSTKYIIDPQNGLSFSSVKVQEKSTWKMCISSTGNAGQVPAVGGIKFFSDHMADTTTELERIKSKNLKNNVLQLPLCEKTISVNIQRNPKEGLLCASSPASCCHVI
Chain of Mast/stem cell growth factor receptor Kit (Homo sapiens), P10721 [A829P] (P10721 whole entry A829P): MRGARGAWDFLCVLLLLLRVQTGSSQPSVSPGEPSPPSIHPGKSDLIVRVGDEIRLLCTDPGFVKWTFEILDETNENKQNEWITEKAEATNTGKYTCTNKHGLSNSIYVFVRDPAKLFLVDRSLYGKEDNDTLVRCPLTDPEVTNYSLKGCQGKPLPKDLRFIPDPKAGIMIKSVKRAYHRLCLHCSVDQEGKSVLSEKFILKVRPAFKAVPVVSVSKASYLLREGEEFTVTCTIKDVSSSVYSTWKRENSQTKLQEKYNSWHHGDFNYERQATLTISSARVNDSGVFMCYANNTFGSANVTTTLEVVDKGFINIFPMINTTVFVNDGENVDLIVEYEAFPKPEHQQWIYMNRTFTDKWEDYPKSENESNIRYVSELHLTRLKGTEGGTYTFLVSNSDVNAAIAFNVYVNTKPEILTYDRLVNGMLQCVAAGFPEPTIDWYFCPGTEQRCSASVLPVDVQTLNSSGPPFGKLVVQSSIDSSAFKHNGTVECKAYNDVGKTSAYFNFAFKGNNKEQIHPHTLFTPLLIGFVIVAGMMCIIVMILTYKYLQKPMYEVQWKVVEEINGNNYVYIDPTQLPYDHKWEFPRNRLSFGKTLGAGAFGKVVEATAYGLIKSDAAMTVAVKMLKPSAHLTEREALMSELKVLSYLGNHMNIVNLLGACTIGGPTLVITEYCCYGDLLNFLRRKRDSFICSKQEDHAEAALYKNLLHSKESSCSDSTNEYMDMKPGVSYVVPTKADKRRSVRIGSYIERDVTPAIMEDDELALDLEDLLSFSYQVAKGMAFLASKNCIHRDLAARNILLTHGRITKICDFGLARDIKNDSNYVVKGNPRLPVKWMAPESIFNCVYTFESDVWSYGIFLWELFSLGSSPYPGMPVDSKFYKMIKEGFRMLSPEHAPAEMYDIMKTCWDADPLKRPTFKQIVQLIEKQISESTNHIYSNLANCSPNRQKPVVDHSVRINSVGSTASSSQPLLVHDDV
Chain of Alpha-1D adrenergic receptor (Homo sapiens) (P25100 whole entry): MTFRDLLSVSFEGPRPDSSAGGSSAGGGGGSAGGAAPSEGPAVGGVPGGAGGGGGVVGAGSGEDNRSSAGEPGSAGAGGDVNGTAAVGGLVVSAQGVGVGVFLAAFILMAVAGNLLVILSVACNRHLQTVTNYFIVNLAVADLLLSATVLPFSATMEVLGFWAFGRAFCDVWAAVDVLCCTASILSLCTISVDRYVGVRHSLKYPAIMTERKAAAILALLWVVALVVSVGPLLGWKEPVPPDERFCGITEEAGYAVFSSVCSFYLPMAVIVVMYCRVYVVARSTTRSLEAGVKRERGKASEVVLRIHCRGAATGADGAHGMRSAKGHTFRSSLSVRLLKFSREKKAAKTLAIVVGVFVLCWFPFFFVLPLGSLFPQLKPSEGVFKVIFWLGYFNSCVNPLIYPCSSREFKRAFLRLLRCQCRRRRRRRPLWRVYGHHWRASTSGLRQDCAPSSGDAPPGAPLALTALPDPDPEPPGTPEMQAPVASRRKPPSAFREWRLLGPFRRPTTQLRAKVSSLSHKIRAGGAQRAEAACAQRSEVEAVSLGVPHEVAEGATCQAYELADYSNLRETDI

CN(C)c1ncnc(-c2ccc3nc(Nc4cc(CN5CCN(C(=O)CC(F)(F)F)CC5)ccn4)[nH]c3c2)c1Cl [BAY-440]
inactive: residual activity [1, 46] 86% | residual activity [2, 46] 57% | residual activity [3, 46] 82% | residual activity [4, 46] 100% | residual activity [5, 46] 85% | residual activity [6, 46] 82% | residual activity [7, 46] 100% | residual activity [8, 46] 53% | residual activity [9, 46] 75% | residual activity [10, 46] 96% | residual activity [11, 46] 100% | residual activity [13, 46] 80% | residual activity [14, 46] 100% | residual activity [15, 46] 76% | residual activity [16, 46] 90% | residual activity [17, 46] 75% | residual activity [19, 46] 100% | residual activity [20, 46] 90% | residual activity [21, 46] 100% | residual activity [22, 46] 100% | residual activity [23, 46] 80% | residual activity [24, 46] 90% | inhibition [25] 13.9% | residual activity [26, 46] 100% | residual activity [27, 46] 100% | residual activity [28, 46] 84% | residual activity [29, 46] 100% | residual activity [30, 46] 57% | residual activity [31, 46] 100% | residual activity [32, 46] 92% | residual activity [33, 46] 100% | inhibition [36] 20.8% | inhibition [38] -9.93% | residual activity [39, 46] 86% | residual activity [40, 46] 59% | residual activity [41, 46] 88% | residual activity [43, 46] 80% | residual activity [44, 46] 100% | residual activity [45, 46] 54%
2190 nM: Ki ([42]; read-out: Ki)
active: residual activity [12, 46] 29% | residual activity [18, 46] 40% | residual activity [34, 46] 38% | residual activity [35, 46] 44% | residual activity [37, 46] 4.2%

C[C@H](c1ccnc(Nc2nc3ccc(-c4cc(N(C)C)ncn4)cc3[nH]2)c1)N1CCN(C(=O)CC(F)(F)F)CC1 [BAY-985]
1160 nM: Ki ([42]; read-out: Ki)
inactive: residual activity [1, 47] 100% | residual activity [2, 47] 100% | residual activity [3, 47] 95% | residual activity [4, 47] 82% | residual activity [5, 47] 95% | residual activity [6, 47] 100% | residual activity [7, 47] 100% | residual activity [8, 47] 83% | residual activity [9, 47] 97% | residual activity [10, 47] 100% | residual activity [11, 47] 93% | residual activity [12, 47] 84% | residual activity [13, 47] 100% | residual activity [14, 47] 79% | residual activity [15, 47] 100% | residual activity [16, 47] 70% | residual activity [17, 47] 100% | residual activity [18, 47] 94% | residual activity [19, 47] 100% | residual activity [20, 47] 64% | residual activity [21, 47] 78% | residual activity [22, 47] 97% | residual activity [23, 47] 95% | residual activity [24, 47] 96% | inhibition [25] 3.18% | residual activity [26, 47] 100% | residual activity [27, 47] 100% | residual activity [28, 47] 97% | residual activity [29, 47] 93% | residual activity [30, 47] 100% | residual activity [31, 47] 100% | residual activity [32, 47] 97% | residual activity [33, 47] 92% | residual activity [35, 47] 87% | inhibition [36] 20.2% | residual activity [37, 47] 79% | inhibition [38] 10.2% | residual activity [39, 47] 100% | residual activity [40, 47] 100% | residual activity [41, 47] 100% | residual activity [43, 47] 93% | residual activity [44, 47] 100% | residual activity [45, 47] 86%
1120 nM: Ki ([42]; read-out: pKi (converted))
active: residual activity [34, 47] 41%

From ChEMBL document CHEMBL4507318, “Data for DCP probe BAY-985” (2021)
